The source of these data is patent US8859565B2, “Compound for inhibiting type 5 phosphodiesterase and preparation method thereof” (priority 2010, dated 2014).

Where a name gives a salt, the structure may show the parent alone.

The test system of assay [1] is rats having hypertension induced by monocrotaline. Conditions: cited from earlier work.
Assay [2] addresses T1, PDE5 (Homo sapiens, UniProt O76074). Description: Effect to PDE5 on cAMP (cAMP enzyme immunoassay, EIA). It counts as biochemical. The following applies: 1600 fmol cAMP, PDE5 3u, 30° C., 20 min; 10^−4 to 10^−12 mol·L^−1; p>0.05, S curve cannot be fitted.
For assay [3], the target named is T1, PDE5. The assay can be described thus: Inhibiting effect to PDE5 degrading cGMP (cGMP enzyme immunoassay, EIA). It counts as biochemical. Conditions: 3200 fmol cGMP, PDE5 3u, 30° C., 20 min; PROBIT regression.
Another assay concerns pulmonary hypertension. Conditions: animal model experiments; cited from earlier work.

On to `COc1ccc(CNc2nnc(N3CCC(O)CC3)c3ccc(C#N)cc23)cc1Cl.Cl` [E-4010], for which, in assay [1], the Survival rate entry is listed as “can increase the survival rate”.

With `CCCc1nn(C)c2c(=O)[nH]c(-c3cc(S(=O)(=O)N4C[C@@H](C)N(C)[C@@H](C)C4)ccc3OCC)nc12` [ZTH, 5-[2-ethoxyphenyl-5-(3,4,5-trimethylpiperazinyl)-sulfonyl]-1-methyl-3-propyl-1,6-dihydro-7H-pyrazolo[4,3-d]pyrimidine-7-ketone citrate], at PDE5 [2], the “Effect to PDE5 on cAMP (OD value vs negative control)” value was “no substantial difference in OD value”. The compound also displayed a half-maximal inhibitory concentration (IC50) against PDE5 [3] of 2.12 nM. For the compound `CCCOc1ccccc1-c1nc2nn[nH]c2c(=O)[nH]1` [zaprinast], the “Effect on pulmonary hypertension” value in the assay on pulmonary hypertension is on record as “relatively strong effects to lower pulmonary hypertension”.

By IC50 is commonly meant the concentration needed to halve the response being measured. A low value points to higher potency.
